Data reported in paper PMC7126937 (Bioorganic & Medicinal Chemistry, 2014).
Values joined by “and” are separate entries in the source; they are usually repeats but may differ in a detail not shown here. Equal entries are not always repeated.

System: influenza virus A/California/7/09 (H1N1)pdm09
Type: cell-based, influenza virus A/California/07/09 (H1N1)pdm09

Row | SMILES | ED50 (50% effective concentration; the concentration leading to 50% inhibition of virus replication)
1 | NC12CC3CC(CC(C3)C1)C2 [Amantadine, 1-aminoadamantane, reference compound] | 64.2 ± 4.7 µM
2 | CC1(C)C2CC[C@@]1(C)C(=O)C2 [Compound 1, (1R)-(+)-camphor, reference compound] | 1644.7 ± 144.4 µM
3 | CC1(C)[C@@H]2CC[C@@]1(C)/C(=N/CCC/N=C1\C[C@H]3CC[C@]1(C)C3(C)C)C2 [Compound 2a, N^1E,N^3E-N^1,N^3-bis((1R,2R,4R)-1,7,7-trimethylbicyclo[2.2.1]heptan-2-ylidene)propane-1,3-diamine] | 9.3 ± 0.8 µM
4 | CC1(C)[C@@H]2CC[C@@]1(C)/C(=N/CCCCCC/N=C1\C[C@H]3CC[C@]1(C)C3(C)C)C2 [Compound 2b, N^1E,N^6E-N^1,N^6-bis((1R,2R,4R)-1,7,7-trimethylbicyclo[2.2.1]heptan-2-ylidene)hexane-1,6-diamine] | 15.1 ± 1.1 µM
5 | CC1(C)[C@@H]2CC[C@@]1(C)/C(=N/CCCCCCC/N=C1\C[C@H]3CC[C@]1(C)C3(C)C)C2 [Compound 2c, N^1E,N^7E-N^1,N^7-bis((1R,2R,4R)-1,7,7-trimethylbicyclo[2.2.1]heptan-2-ylidene)heptane-1,7-diamine] | 22.8 ± 2.3 µM
6 | CC1(C)[C@@H]2CC[C@@]1(C)/C(=N/CCCCCCCC/N=C1\C[C@H]3CC[C@]1(C)C3(C)C)C2 [Compound 2d, N^1E,N^8E-N^1,N^8-bis((1R,2R,4R)-1,7,7-trimethylbicyclo[2.2.1]heptan-2-ylidene)octane-1,8-diamine] | 24.2 ± 2.1 µM
7 | CC1(C)[C@@H]2CC[C@@]1(C)/C(=N/CCCCCCCCCCCC/N=C1\C[C@H]3CC[C@]1(C)C3(C)C)C2 [Compound 2e, N^1E,N^12E-N^1,N^12-bis((1R,2R,4R)-1,7,7-trimethylbicyclo[2.2.1]heptan-2-ylidene)dodecane-1,12-diamine] | 45.0 ± 3.9 µM
8 | CC1(C)[C@@H]2CC[C@@]1(C)/C(=N/c1ccc(Cc3ccc(/N=C4\C[C@H]5CC[C@]4(C)C5(C)C)cc3)cc1)C2 [Compound 2f, (E)-N-((1R,2R,4R)-1,7,7-trimethylbicyclo[2.2.1]heptan-2-ylidene)-4-(4-((E)-((1R,2R,4R)-1,7,7-trimethylbicyclo[2.2.1]heptan-2-ylidene)amino)benzyl)aniline] | 351.4 ± 32.3 µM
9 | CC1(C)[C@@H]2CC[C@@]1(C)/C(=N/c1ccc(Oc3ccc(/N=C4\C[C@H]5CC[C@]4(C)C5(C)C)cc3)cc1)C2 [Compound 2g, (E)-N-((1R,2R,4R)-1,7,7-trimethylbicyclo[2.2.1]heptan-2-ylidene)-4-(4-((E)-((1R,2R,4R)-1,7,7-trimethylbicyclo[2.2.1]heptan-2-ylidene)amino)phenoxy)aniline] | 373.4 ± 35.1 µM
10 | CC1(C)[C@@H]2CC[C@@]1(C)[C@H](NCCCCCCN[C@@H]1C[C@H]3CC[C@]1(C)C3(C)C)C2 [Compound 3b, N^1,N^6-bis((1R,2R,4R)-1,7,7-trimethylbicyclo[2.2.1]heptan-2-yl)hexane-1,6-diamine] | 0.77 µM and 0.77 ± 0.1 µM
11 | CC1(C)[C@@H]2CC[C@@]1(C)[C@H](NCCCCCCCN[C@@H]1C[C@H]3CC[C@]1(C)C3(C)C)C2 [Compound 3c, N^1,N^7-bis((1R,2R,4R)-1,7,7-trimethylbicyclo[2.2.1]heptan-2-yl)heptane-1,7-diamine] | 3.2 µM and 3.2 ± 0.2 µM
12 | CC1(C)[C@@H]2CC[C@@]1(C)[C@H](NCCCCCCCCCCCCN[C@@H]1C[C@H]3CC[C@]1(C)C3(C)C)C2 [Compound 3e, N^1,N^12-bis((1R,2R,4R)-1,7,7-trimethylbicyclo[2.2.1]heptan-2-yl)dodecane-1,12-diamine] | 4.4 ± 0.3 µM
13 | CC1(C)[C@@H]2CC[C@@]1(C)[C@H](Nc1ccc(Cc3ccc(N[C@@H]4C[C@H]5CC[C@]4(C)C5(C)C)cc3)cc1)C2 [Compound 3f, (1R,2R,4R)-1,7,7-trimethyl-N-(4-(4-((1R,2R,4R)-1,7,7-trimethylbicyclo[2.2.1]heptan-2-ylamino)benzyl)phenyl)bicyclo[2.2.1]heptan-2-amine] | 153.2 ± 11.9 µM
14 | CC1(C)[C@@H]2CC[C@@]1(C)[C@H](Nc1ccc(Oc3ccc(N[C@@H]4C[C@H]5CC[C@]4(C)C5(C)C)cc3)cc1)C2 [Compound 3g, (1R,2R,4R)-1,7,7-trimethyl-N-(4-(4-((1R,2R,4R)-1,7,7-trimethylbicyclo[2.2.1]heptan-2-ylamino)phenoxy)phenyl)bicyclo[2.2.1]heptan-2-amine] | 207.6 ± 19.5 µM
15 | CN(CCCCCCN(C)[C@@H]1C[C@H]2CC[C@]1(C)C2(C)C)[C@@H]1C[C@H]2CC[C@]1(C)C2(C)C [Compound 4b, N^1,N^6-dimethyl-N^1,N^6-bis((1R,2R,4R)-1,7,7-trimethylbicyclo[2.2.1]heptan-2-yl) hexane-1,6-diamine] | 110.1 ± 10.4 µM
16 | CN(CCCCCCCN(C)[C@@H]1C[C@H]2CC[C@]1(C)C2(C)C)[C@@H]1C[C@H]2CC[C@]1(C)C2(C)C [Compound 4c, N^1,N^7-dimethyl-N^1,N^7-bis((1R,2R,4R)-1,7,7-trimethylbicyclo[2.2.1]heptan-2-yl)heptane-1,7-diamine] | 40.4 ± 3.8 µM
17 | CC1(C)[C@@H]2CC[C@@]1(C)/C(=N/c1ccc(Cc3ccc(N)cc3)cc1)C2 [Compound 5f, (E)-4-(4-aminobenzyl)-N-((1R,2R,4R)-1,7,7-trimethylbicyclo[2.2.1]heptan-2-ylidene)aniline] | 15.0 ± 1.2 µM
18 | CC1(C)[C@@H]2CC[C@@]1(C)/C(=N/c1ccc(Oc3ccc(N)cc3)cc1)C2 [Compound 5g, (E)-4-(4-aminophenoxy)-N-((1R,2R,4R)-1,7,7-trimethylbicyclo[2.2.1]heptan-2-ylidene)aniline] | 4.2 ± 0.0 µM
19 | CC(N)C12CC3CC(CC(C3)C1)C2.Cl (stereo not drawn) [Rimantadine, α-methyl-1-adamantylamine hydrochloride, reference compound] | 67.0 ± 4.9 µM
